According to article PMC8379256, “A xanthene derivative, DS20060511, attenuates glucose intolerance by inducing skeletal muscle-specific GLUT4 translocation in mice” (Communications Biology, 2021):
Several values for one entry are separate records, joined by “and”; a condition that tells them apart may be missing. Equal entries are not always repeated.

What was measured:
[1] = test system: isolated soleus and EDL muscles; assay: [3H]-2-DG uptake in isolated soleus and EDL muscles from WT and GLUT4KO mice; set-up: species or system mouse; conditions: for 2DOG Trn / IC 2DOG / 2-DG uptake Raio: DS20060511 10μM, individual muscles; for 2DOG Trn / IC 2DOG: 2DG 1 mM, incubation time 10 min; for 2-DG uptake Raio: ratio to vehicle
Experimental: Fig. 3 The glucose-lowering effect of DS20060511 is totally dependent on GLUT4. a Blood glucose and plasma insulin levels during oral GTT in wild-type (WT, n = 5) and GLUT4 knockout (KO, n = 6) mice. Mice received oral administration of vehicle or DS20060511 (30 mg kg^−1), 15 min prior to the glucose administration (1.5 g kg^−1). Values shown are means ± SEM. *P < 0.05, **P < 0.01 vs. vehicle by the t-test. b DS20060511-stimulated [^3H]-2-DG uptake in the isolated soleus and EDL muscles excised from WT (n = 6) and KO (n = 6) mice. Values shown are means ± SEM. **P < 0.01 vs. vehicle by the t-test.
The soleus or EDL muscle was removed from anesthetized mice (isoflurane anesthesia) that had been denied access to food overnight, and incubated with oxygenated (95% O2/5% CO2) Krebs-Henseleit Bicarbonate (KHB) buffer (118.1 mM NaCl, 4.7 mM KCl, 1.1 mM KH2PO4, 1.2 mM MgSO4, 2.5 mM CaCl2, and 25 mM NaHCO3, pH7.4) in the presence of 11.1 mM glucose at 37 °C. The muscle specimens were then treated with the indicated concentrations of the compounds in KHB buffer containing 11.1 mM glucose and 8 mM mannitol for 10 min at 37 °C. Thereafter, the muscles were rinsed with KHB buffer containing 8 mM mannitol and the compounds for 5 min at 37 °C. Lastly, the muscles were treated with the compounds in KHB buffer containing 1 mM 2-DG (with 0.3 μCi mL^−1 [^3H]-2-DG) and 8 mM mannitol (with 0.03 μCi mL^−1 [^14C]-mannitol) for 10 min at 37 °C. After the muscle specimens were washed, they were lysed with 1 N NaOH and neutralized with 1 N HCl. The ^14C- and ^3H-specific activities were counted with a liquid scintillation counter. The specific uptake of 2-DG was calculated by subtracting the nonspecific uptake of mannitol from the total 2-DG uptake. To investigate the effects of muscle contraction, muscle contraction was induced by electrical stimulation with 5 Hz (1 ms pulse duration, 100 V) for 10 min (SEN-5201, Nihon Koden, Tokyo, Japan).

[2] = test system: C57BL/6 mice; assay: In vivo [3H]-2-DG uptake into tissues during intraperitoneal GTT; set-up: species or system mouse; conditions: for count (dpm) 2DG / count (dpm) Total / dpm/mg 2DG / dpm/mg 2DGP / dpm/mg Total / Ratio: 30 mg/kg; for Ratio: 2DGP relative to vehicle
Experimental: Tissue glucose uptake was examined by measuring the uptake of [^3H]-2-DG during an intraperitoneal GTT as described previously[46],[47], with minor modifications. Mice that had been denied access to food overnight received oral administration of 30 mg kg^−1 of DS20060511 or vehicle 15 min prior to the glucose load. The mice then received intraperitoneal glucose administration (1 g kg^−1 containing 100 μCi kg^−1 [^3H]-2-DG as tracer), followed by quick removal of the tissues 60 min later. Tissue samples were homogenized in 0.5% perchloric acid and centrifuged, and the supernatants were neutralized with KOH. One aliquot of the supernatants was used for measuring the total radioactivity ([^3H]-2-DG and [^3H]-2-DG 6-phosphate ([^3H]-2-DGP)). A second aliquot of the supernatants was treated with 1 N Ba(OH)2 and 1 N ZnSO4 to remove [^3H]-2-DGP, and the [^3H]-2-DG count was measured. 2-DG uptake into the tissue, which is rapidly metabolized to 2-DGP in the tissue, was estimated by subtracting the count of [^3H]-2-DG from the total count. ^3H-specific activities were counted using a liquid scintillation counter.

Structure (SMILES): COc1ccc2c(C)c(C(=O)O)ccc2c1C1C2=C(CC(C)(C)CC2=O)OC2=C1C(=O)CC(C)(C)C2 [DS20060511]
- 2-DG uptake by isolated soleus and EDL muscles (in words) ([1]; GLUT4KO mice): no such increase in muscle uptake was observed
- 2DOG Trn ([1]; GLUT4KO, isolated EDL): 219 nmol/ml and 21.9 µM/min and 229 nmol/ml and 22.9 µM/min and 220 nmol/ml and 22.0 µM/min and 239 nmol/ml and 23.9 µM/min and 247 nmol/ml and 24.7 µM/min
- IC 2DOG ([1]; GLUT4KO, isolated EDL): 136 nmol/g and 155 nmol/g and 142 nmol/g and 149 nmol/g and 143 nmol/g and 156 nmol/g
- 2-DG uptake Raio ([1]; GLUT4KO, isolated EDL): 1.02 and 1.07 and 1.03 and 1.11 and 1.15
- 2DOG Trn ([1]; GLUT4KO, isolated Soleus): 272 nmol/ml and 27.2 µM/min and 411 nmol/ml and 41.1 µM/min and 553 nmol/ml and 55.3 µM/min and 323 nmol/ml and 32.3 µM/min and 280 nmol/ml and 28.0 µM/min and 475 nmol/ml and 47.5 µM/min
- IC 2DOG ([1]; GLUT4KO, isolated Soleus): 151 nmol/g and 223 nmol/g and 272 nmol/g and 155 nmol/g and 138 nmol/g and 244 nmol/g
- 2-DG uptake Raio ([1]; GLUT4KO, isolated Soleus): 0.86 and 1.30 and 1.75 and 1.02 and 0.89 and 1.50
- 2-DG uptake by isolated soleus and EDL muscles (in words) ([1]; WT mice): significantly increased the 2-DG uptake
- 2DOG Trn ([1]; Wildtype, isolated EDL): 620 nmol/ml and 62.0 µM/min and 476 nmol/ml and 47.6 µM/min and 591 nmol/ml and 59.1 µM/min and 474 nmol/ml and 47.4 µM/min and 359 nmol/ml and 35.9 µM/min and 351 nmol/ml and 35.1 µM/min
- IC 2DOG ([1]; Wildtype, isolated EDL): 373 nmol/g and 286 nmol/g and 340 nmol/g and 291 nmol/g and 235 nmol/g and 229 nmol/g
- 2-DG uptake Raio ([1]; Wildtype, isolated EDL): 2.47 and 1.90 and 2.36 and 2.12 and 1.61 and 1.57
- 2DOG Trn ([1]; Wildtype, isolated Soleus): 632 nmol/ml and 63.2 µM/min and 599 nmol/ml and 59.9 µM/min and 719 nmol/ml and 71.9 µM/min and 638 nmol/ml and 63.8 µM/min and 552 nmol/ml and 55.2 µM/min and 582 nmol/ml and 58.2 µM/min
- IC 2DOG ([1]; Wildtype, isolated Soleus): 343 nmol/g and 302 nmol/g and 363 nmol/g and 327 nmol/g and 293 nmol/g and 321 nmol/g
- 2-DG uptake Raio ([1]; Wildtype, isolated Soleus): 1.76 and 1.67 and 2.01 and 2.02 and 1.75 and 1.84
- count (dpm) 2DG ([2]; Gastro.): 405 dpm and 366 dpm and 390 dpm
- count (dpm) Total ([2]; Gastro.): 1890 dpm and 1397 dpm and 1924 dpm
- dpm/mg 2DG ([2]; Gastro.): 63.3 dpm/mg and 57.2 dpm/mg and 60.9 dpm/mg
- dpm/mg 2DGP ([2]; Gastro.): 54.8 dpm/mg and 30.1 dpm/mg and 59.3 dpm/mg
- dpm/mg Total ([2]; Gastro.): 118.1 dpm/mg and 87.3 dpm/mg and 120.3 dpm/mg
- Ratio ([2]; Gastro.): 4.35 and 2.39 and 4.70
- count (dpm) 2DG ([2]; Heart): 398 dpm and 423 dpm and 382 dpm
- count (dpm) Total ([2]; Heart): 1218 dpm and 1277 dpm and 1201 dpm
- dpm/mg 2DG ([2]; Heart): 62.2 dpm/mg and 66.1 dpm/mg and 59.7 dpm/mg
- dpm/mg 2DGP ([2]; Heart): 39.3 dpm/mg and 40.3 dpm/mg and 40.4 dpm/mg
- dpm/mg Total ([2]; Heart): 101.5 dpm/mg and 106.4 dpm/mg and 100.1 dpm/mg
- Ratio ([2]; Heart): 0.90 and 0.93
- count (dpm) 2DG ([2]; Soleus): 214 dpm and 169 dpm and 183 dpm
- dpm/mg 2DG ([2]; Soleus): 100.3 dpm/mg and 79.2 dpm/mg and 85.8 dpm/mg
- dpm/mg Total ([2]; Soleus): 286.0 dpm/mg and 229.5 dpm/mg and 201.0 dpm/mg
- count (dpm) Total ([2]; Soleus, 30 mg/kg po, 60 min during ip GTT): 572 dpm and 459 dpm and 402 dpm
- dpm/mg 2DGP ([2]; Soleus, 2-DG uptake = Total minus 2DG): 185.7 dpm/mg and 150.3 dpm/mg and 115.2 dpm/mg
- Ratio ([2]; Soleus): 4.96 and 4.02 and 3.08
- count (dpm) 2DG ([2]; WAT): 697 dpm and 877 dpm and 734 dpm
- count (dpm) Total ([2]; WAT): 1450 dpm and 1799 dpm and 1511 dpm
- dpm/mg 2DG ([2]; WAT): 34.9 dpm/mg and 43.9 dpm/mg and 36.7 dpm/mg
- dpm/mg 2DGP ([2]; WAT): 13.5 dpm/mg and 16.1 dpm/mg and 13.7 dpm/mg
- dpm/mg Total ([2]; WAT): 48.3 dpm/mg and 60.0 dpm/mg and 50.4 dpm/mg
- Ratio ([2]; WAT): 0.99 and 1.18 and 1.00
- uptake of [3H]-2-DG (in words) ([2]; soleus and gastrocnemius muscles, ip GTT, 30 mg kg−1): significant increase
